{
  "source": "patent US11987579B2",
  "about": "(Duke University, priority 2018, dated 2024)",
  "tested_on": "CCD841Co colonic cells",
  "assay": "Assessment of oxygen consumption rate (OCR), Seahorse XFp",
  "format": "cell-based",
  "conditions": "1 μM FCCP, cells treated with DMSO control media",
  "procedure": "Colonic epithelial CCD841Co cells were plated in Seahorse XFp 8-well miniplates at 8000 cells/well and allowed to attach overnight at 37° C. in a 5% CO2 incubator. Polarographic analysis of OCR was performed using Seahorse XF Analyzer (Agilent Technologies, Santa Clara, Calif.) and a Seahorse XFp Cell Mito Stress Test Kit (Agilent Technologies, catalog number 103010-100). […] Data were analyzed by the software Wave (Version 2.3.0.20, Agilent Technologies, Santa Clara, Calif.).",
  "data": [
    {"smiles": "N#CC(C#N)=NNc1ccc(OC(F)(F)F)cc1", "note": "[FCCP]", "values": [
      {"measurement": "oxygen consumption rate after control compound addition", "value": "increases oxygen consumption rate"}
    ]}
  ]
}
